Laboratory results from article PMC11033320, “Activation of p53 signaling and regression of breast and prostate carcinoma cells by spirooxindole-benzimidazole small molecules” (Frontiers in Pharmacology, 2024).

Legend:
[1] = MTT cytotoxicity to normal human lung fibroblast Wi-38 cell line; assay type: cell-based; conditions: Wi-38 normal lung fibroblast cells, mean ± SEM, read-out: percentage of Wi-38 viability
Procedure: Normal human lung fibroblast Wi-38 cell line was used to detect cytotoxicity of the studied compounds (Table S8). Wi-38 cell line was cultured in DMEM medium-contained 10% fetal bovine serum (FBS), seeded as 5x10^3 cells per well in 96-well cell culture plate and incubated at 37 °C in 5% CO2 incubator. After 24 h for cell attachment, serial concentrations of the synthetic compounds were incubated with Wi-38 cells for 72 h. Cell viability was assayed by MTT method (Mosmann, 1983). Twenty microliters of 5 mg/ml MTT (Sigma, USA) was added to each well and the plate was incubated at 37 °C for 3 h. Then MTT solution was removed, 100 µl DMSO was added and the absorbance of each well was measured with a microplate reader (BMG LabTech, Germany) at 570 nm.

[2] = tested on: CCRF-CEM; assay: NCI anticancer screening, Leukemia CCRF-CEM; assay type: cell-based; conditions: Homo sapiens, read-out: % Growth Inhibition (GI %)
Excerpt: (§1) The compound has been processed according to standard method NCI-60 Human Tumor Cell Lines Screen for organic compound at development therapeutic program (DTP). Requests for access to this national resource can be submitted online at: […]

[3] = tested on: HL-60(TB); assay: NCI anticancer screening, Leukemia HL-60(TB); assay type: cell-based; conditions: Homo sapiens, read-out: % Growth Inhibition (GI %)
Excerpt: as §1

[4] = tested on: MOLT-4; assay: NCI anticancer screening, Leukemia MOLT-4; assay type: cell-based; conditions: Homo sapiens; MOLT-4, 10 μM; read-out: % Growth Inhibition (GI %)
Excerpt: as §1

[5] = tested on: A549/ATCC; assay: NCI anticancer screening, Non-Small Cell Lung Cancer A549/ATCC; assay type: cell-based; conditions: Homo sapiens, read-out: % Growth Inhibition (GI %)
Excerpt: as §1

[6] = tested on: HOP-62; assay: NCI anticancer screening, Non-Small Cell Lung Cancer HOP-62; assay type: cell-based; conditions: Homo sapiens; HOP-62, 10 μM; read-out: % Growth Inhibition (GI %)
Excerpt: as §1

[7] = tested on: HOP-92; assay: NCI anticancer screening, Non-Small Cell Lung Cancer HOP-92; assay type: cell-based; conditions: Homo sapiens; HOP-92, 10 μM; read-out: % Growth Inhibition (GI %)
Excerpt: as §1

[8] = tested on: NCI-H522; assay: NCI anticancer screening, Non-Small Cell Lung Cancer NCI-H522; assay type: cell-based; conditions: Homo sapiens; NCI-H522, 10 μM; read-out: % Growth Inhibition (GI %)
Excerpt: as §1

[9] = tested on: HCC-2998; assay: NCI anticancer screening, Colon Cancer HCC-2998; assay type: cell-based; conditions: Homo sapiens; HCC-2998, 10 μM; read-out: % Growth Inhibition (GI %)
Excerpt: as §1

[10] = tested on: HCT-116; assay: NCI anticancer screening, Colon Cancer HCT-116; assay type: cell-based; conditions: Homo sapiens; HCT-116, 10 μM; read-out: % Growth Inhibition (GI %)
Excerpt: as §1

[11] = tested on: HCT-15; assay: NCI anticancer screening, Colon Cancer HCT-15; assay type: cell-based; conditions: Homo sapiens; HCT-15, 10 μM; read-out: % Growth Inhibition (GI %)
Excerpt: as §1

[12] = tested on: HT29; assay: NCI anticancer screening, Colon Cancer HT29; assay type: cell-based; conditions: Homo sapiens, HT-29; HT29, 10 μM; read-out: % Growth Inhibition (GI %)
Excerpt: as §1

[13] = tested on: SW-620; assay: NCI anticancer screening, Colon Cancer SW-620; assay type: cell-based; conditions: Homo sapiens; SW-620, 10 μM; read-out: % Growth Inhibition (GI %)
Excerpt: as §1

[14] = tested on: SF-268; assay: NCI anticancer screening, CNS Cancer SF-268; assay type: cell-based; conditions: Homo sapiens; SF-268, 10 μM; read-out: % Growth Inhibition (GI %)
Excerpt: as §1

[15] = tested on: SNB-75; assay: NCI anticancer screening, CNS Cancer SNB-75; assay type: cell-based; conditions: Homo sapiens; SNB-75, 10 μM; read-out: % Growth Inhibition (GI %)
Excerpt: as §1

[16] = tested on: U251; assay: NCI anticancer screening, CNS Cancer U251; assay type: cell-based; conditions: Homo sapiens, U-251; U251, 10 μM; read-out: % Growth Inhibition (GI %)
Excerpt: as §1

[17] = tested on: MALME-3M; assay: NCI anticancer screening, Melanoma MALME-3M; assay type: cell-based; conditions: Homo sapiens, read-out: % Growth Inhibition (GI %)
Excerpt: as §1

[18] = tested on: MDA-MB-435; assay: NCI anticancer screening, Melanoma MDA-MB-435; assay type: cell-based; conditions: Homo sapiens; MDA-MB-435, 10 μM; read-out: % Growth Inhibition (GI %)
Excerpt: as §1

[19] = tested on: SK-MEL-2; assay: NCI anticancer screening, Melanoma SK-MEL-2; assay type: cell-based; conditions: Homo sapiens; SK-MEL-2, 10 μM; read-out: % Growth Inhibition (GI %)
Excerpt: as §1

[20] = tested on: SK-MEL-5; assay: NCI anticancer screening, Melanoma SK-MEL-5; assay type: cell-based; conditions: Homo sapiens; SK-MEL-5, 10 μM; read-out: % Growth Inhibition (GI %)
Excerpt: as §1

[21] = tested on: UACC-257; assay: NCI anticancer screening, Melanoma UACC-257; assay type: cell-based; conditions: Homo sapiens; UACC-257, 10 μM; read-out: % Growth Inhibition (GI %)
Excerpt: as §1

[22] = tested on: OVCAR-3; assay: NCI anticancer screening, Ovarian Cancer OVCAR-3; assay type: cell-based; conditions: Homo sapiens; OVCAR-3, 10 μM; read-out: % Growth Inhibition (GI %)
Excerpt: as §1

[23] = tested on: OVCAR-5; assay: NCI anticancer screening, Ovarian Cancer OVCAR-5; assay type: cell-based; conditions: Homo sapiens; OVCAR-5, 10 μM; read-out: % Growth Inhibition (GI %)
Excerpt: as §1

[24] = tested on: NCI/ADR-RES; assay: NCI anticancer screening, Ovarian Cancer NCI/ADR-RES; assay type: cell-based; conditions: Homo sapiens, read-out: % Growth Inhibition (GI %)
Excerpt: as §1

[25] = tested on: 786-0; assay: NCI anticancer screening, Renal Cancer 786-0; assay type: cell-based; conditions: Homo sapiens; 786-0, 10 μM; read-out: % Growth Inhibition (GI %)
Excerpt: as §1

[26] = tested on: ACHN; assay: NCI anticancer screening, Renal Cancer ACHN; assay type: cell-based; conditions: Homo sapiens, read-out: % Growth Inhibition (GI %)
Excerpt: as §1

[27] = tested on: CAKI-1; assay: NCI anticancer screening, Renal Cancer CAKI-1; assay type: cell-based; conditions: Homo sapiens; CAKI-1, 10 μM; read-out: % Growth Inhibition (GI %)
Excerpt: as §1

[28] = tested on: SN12C; assay: NCI anticancer screening, Renal Cancer SN12C; assay type: cell-based; conditions: Homo sapiens, read-out: % Growth Inhibition (GI %)
Excerpt: as §1

[29] = tested on: TK-10; assay: NCI anticancer screening, Renal Cancer TK-10; assay type: cell-based; conditions: Homo sapiens; TK-10, 10 μM; read-out: % Growth Inhibition (GI %)
Excerpt: as §1

[30] = tested on: UO-31; assay: NCI anticancer screening, Renal Cancer UO-31; assay type: cell-based; conditions: Homo sapiens; UO-31, 10 μM; read-out: % Growth Inhibition (GI %)
Excerpt: as §1

[31] = tested on: MCF7; assay: NCI anticancer screening, Breast Cancer MCF7; assay type: cell-based; conditions: Homo sapiens; MCF7, 10 μM; read-out: % Growth Inhibition (GI %)
Excerpt: as §1

[32] = tested on: HS 578T; assay: NCI anticancer screening, Breast Cancer HS 578T; assay type: cell-based; conditions: Homo sapiens, read-out: % Growth Inhibition (GI %)
Excerpt: as §1

[33] = tested on: MDA-MB-468; assay: NCI anticancer screening, Breast Cancer MDA-MB-468; assay type: cell-based; conditions: Homo sapiens, read-out: % Growth Inhibition (GI %)
Excerpt: as §1

Row | Compound | viability at 72 h, 5 µM [1] [%] | inhibition at 10 µM [2] [%] | inhibition at 10 µM [3] [%] | inhibition at 10 µM [4] [%] | inhibition at 10 µM [5] [%] | inhibition at 10 µM [6] [%] | inhibition at 10 µM [7] [%] | inhibition at 10 µM [8] [%] | inhibition at 10 µM [9] [%] | inhibition at 10 µM [10] [%] | inhibition at 10 µM [11] [%] | inhibition at 10 µM [12] [%] | inhibition at 10 µM [13] [%] | inhibition at 10 µM [14] [%] | inhibition at 10 µM [15] [%] | inhibition at 10 µM [16] [%] | inhibition at 10 µM [17] [%] | inhibition at 10 µM [18] [%] | inhibition at 10 µM [19] [%] | inhibition at 10 µM [20] [%] | further results
1 | COc1cc([C@@H]2C3CSCN3[C@]3(C(=O)Nc4ccccc43)[C@H]2C(=O)c2nc3ccccc3[nH]2)cc(OC)c1OC (stereo partly drawn) [Compound 6i, (3S,6′R)-6'-(1H-Benzo [d]imidazole-2-carbonyl)-7'-(3,4,5-trimethoxyphenyl)-3′,6′,7′,7a′-tetrahydro-1′H-spiro [indoline-3.5′-pyrrolo [1,2-c]thiazol]-2-one] | 43.3 ± 0.917 | 104 | 103 | 97.4 | 89.4 | 104 | 106 | 88.3 | 108 | 102 | 105 | 107 | 99.5 | 99.2 | 94.1 | 103 | 99.8 | 101 | 115 | 103 | inhibition at 10 µM [21]: 87.8%; inhibition at 10 µM [22]: 109%; inhibition at 10 µM [23]: 94.3%; inhibition at 10 µM [24]: 104%; inhibition at 10 µM [25]: 99.4%; inhibition at 10 µM [26]: 107%; inhibition at 10 µM [27]: 92.6%; inhibition at 10 µM [28]: 99%; inhibition at 10 µM [29]: 104%; inhibition at 10 µM [30]: 86.6%; inhibition at 10 µM [31]: 99.9%; inhibition at 10 µM [32]: 102%; inhibition at 10 µM [33]: 99.6%; melting point: 245 to 247 °C
2 | O=C(c1nc2ccccc2[nH]1)[C@H]1[C@H](c2ccco2)C2CSCN2[C@]12C(=O)Nc1ccccc12 (stereo partly drawn) [Compound 6n, (3S,6′R)-6'-(1H-Benzo [d]imidazole-2-carbonyl)-7'-(furan-2-yl)-3′,6′,7′,7a′-tetrahydro-1′H-spiro [indoline-3.5′-pyrrolo [1,2-c]thiazol]-2-one] | 46.2 ± 1.47 | 110 | 98.4 | 96.8 | 102 | 99.8 | 113 | 99.7 | 104 | 98.6 | 105 | 115 | 95.6 | 102 | 96 | 109 | 102 | 105 | 124 | 98.2 | inhibition at 10 µM [21]: 116%; inhibition at 10 µM [22]: 110%; inhibition at 10 µM [23]: 97.2%; inhibition at 10 µM [24]: 101%; inhibition at 10 µM [25]: 104%; inhibition at 10 µM [26]: 93.7%; inhibition at 10 µM [27]: 88.5%; inhibition at 10 µM [28]: 92.5%; inhibition at 10 µM [29]: 133%; inhibition at 10 µM [30]: 61.7%; inhibition at 10 µM [31]: 100%; inhibition at 10 µM [32]: 91.3%; inhibition at 10 µM [33]: 102%; melting point: 240 to 242 °C
3 | O=C(c1nc2ccccc2[nH]1)[C@H]1[C@H](c2cccc(O)c2)C2CSCN2[C@]12C(=O)Nc1ccccc12 (stereo partly drawn) [Compound 6h, (3S,6′R)-6'-(1H-Benzo [d]imidazole-2-carbonyl)-7'-(3-hydroxyphenyl)-3′,6′,7′,7a′-tetrahydro-1′H-spiro [indoline-3.5′-pyrrolo [1,2-c]thiazol]-2-one] | 51 ± 1.83 | 108 | 104 | 91.2 | 95.4 | 96.4 | 98.3 | 83.9 | 101 | 89 | 103 | 104 | 91.8 | 88.5 | 74.5 | 98.9 | 96.8 | 93.5 | 102 | 93.7 | inhibition at 10 µM [21]: 91.9%; inhibition at 10 µM [22]: 97.2%; inhibition at 10 µM [23]: 92.9%; inhibition at 10 µM [24]: 97.1%; inhibition at 10 µM [25]: 101%; inhibition at 10 µM [26]: 92.8%; inhibition at 10 µM [27]: 84.1%; inhibition at 10 µM [28]: 94.8%; inhibition at 10 µM [29]: 113%; inhibition at 10 µM [30]: 60.6%; inhibition at 10 µM [31]: 92.8%; inhibition at 10 µM [32]: 80.4%; inhibition at 10 µM [33]: 104%; melting point: 205 to 207 °C
